≈ marks a conversion by molar mass, not a printed value.
Columns and labels:
[1] = system: Mycobacterium tuberculosis; assay: Antibacterial activity against Mycobacterium tuberculosis incubated for 5 days by Alamar blue staining method; assay type: functional; details: 120 h, time 5 day
[2] = system: Mycobacterium tuberculosis; assay: Antibacterial activity against Mycobacterium tuberculosis H37Rv ATCC 27294 incubated for 5 days by Alamar blue staining method; assay type: functional; details: H37Rv ATCC 27294, 120 h, time 5 day
[3] = system: Mycobacterium tuberculosis; assay: Antibacterial activity against Mycobacterium tuberculosis H37Ra ATCC 25177 assessed as no visible mycobacterial growth incubated for 7 to 8 days by light microscope based spectrophotometric analysis; assay type: functional; details: time 7-8 day
[4] = system: Mycobacterium tuberculosis; assay: Antibacterial activity against Mycobacterium tuberculosis H37Rv ATCC 27294 by broth microdilution based microplate Alamar blue staining method; assay type: functional
[5] = system: Mycobacterium tuberculosis; assay: Antibacterial activity against Mycobacterium tuberculosis measured after 14 days; assay type: functional; details: 336 h, time 14 day
[6] = system: Mycolicibacterium fortuitum; assay: Antibacterial activity against Mycobacterium fortuitum ATCC 6841 measured after 24 hrs; assay type: functional
[7] = system: Mycobacterium tuberculosis; assay: Antibacterial activity against Mycobacterium tuberculosis; assay type: functional, organism-based
[8] = system: Mycobacterium tuberculosis; assay: Antibacterial activity against Mycobacterium tuberculosis H37Rv ATCC 27294 incubated for 6 weeks by MGIT assay; assay type: functional; details: H37Rv ATCC 27294, 1008 h
Mycolicibacterium aurum = assay: Antibacterial activity against Mycobacterium aurum measured after 72 hrs; assay type: functional
[9] = system: Mycolicibacterium smegmatis; assay: Antibacterial activity against Mycobacterium smegmatis measured after 72 hrs; assay type: functional
[10] = system: Mycolicibacterium fortuitum; assay: Antibacterial activity against Mycobacterium fortuitum measured after 72 hrs by 96-well microtitre plate assay; assay type: functional
[11] = system: Mycobacterium tuberculosis; assay: Antibacterial activity against Mycobacterium tuberculosis H37Ra by MABA method; assay type: functional
[12] = system: Mycobacterium tuberculosis; assay: Antibacterial activity against Mycobacterium tuberculosis H37Ra assessed as inhibition of bacterial growth incubated for 72 hrs by microbroth dilution method; assay type: functional

`COc1cc2c[n+](C)c3c4cc5c(cc4ccc3c2cc1OC)OCO5` [NITIDINE] gave an MIC [1] of 12.5 µg/mL.
`COc1cc2c(c3c[n+](C)c4c5cc6c(cc5ccc4c13)OCO6)OCO2` was tested, and the MIC [1] was 12.5 µg/mL.
With `COc1cc2c(cc1OC)-c1c3c(cc4ccnc(c14)C2=O)OCO3` [DICENTRINONE] the MIC [2] was 50 µg/mL (≈ 149 µM).
`COc1c(O)ccc2c1cnc1c3cc4c(cc3ccc21)OCO4` [DECARINE] was tested, and the MIC [3] was 3.1 µg/mL (≈ 9.71 µM).
`CC(=O)C[C@H]1CC2C(C3c4[nH]c5ccccc5c4CCN31)C(O)C13CC/C=C\CCCCN1CC21CC/C=C\CCCCNC13` (stereo partly drawn) gave an MIC [4] of 1.57 µg/mL (≈ 2.57 µM).
Compound `COc1ccc2cc1Oc1ccc(cc1)CC1NCCc3cc(OC)c(cc31)Oc1c(OC)c(OC)cc3c1C(C2)N(C)CC3` (stereo not drawn) has an MIC [5] of 0.25 µg/mL (≈ 0.411 µM).
`CCCCCc1cc(OC)c2ccccc2n1` gave an MIC [5] of 6.25 µg/mL (≈ 27.3 µM).
`Cn1c2nc3ccccc3c-2cc2ccccc21` [NEOCRYPTOLEPINE] showed an MIC [6] of 31 µg/mL (≈ 133 µM).
With `COc1cc2c(cc1OC)-c1cc(CC(C)=O)c3cc4c(cc3c1N(C)C2)OCO4` the MIC [7] was 6.25 µg/mL (≈ 15.4 µM).
For `CC(=O)NCCc1c2c(c3nccc4c3c1Nc1ccccc1-4)OCS2` [LISSOCLINIDINE], the MIC [7] was 6.18 µg/mL (≈ 17 µM).
`COc1ccc2c(c[n+](C)c3c4cc5c(cc4ccc23)OCO5)c1OC` [CHELERYTHRINE] was tested, and the MIC [7] was 3.1 µg/mL.
`COc1ccc2cc1-c1cc(ccc1O)CC1c3cc4c(cc3CCN1C)Oc1c(OC)cc3c(c1O4)C(C2)N(C)CC3` (stereo not drawn) gave an MIC [5] of 3.1 µg/mL (≈ 5.38 µM).
Compound `COc1cc(-c2ccccc2)nc2ccccc12` has an MIC [1] of 6.25 µg/mL (≈ 26.6 µM).
`COC(=O)C1=C2Nc3ccccc3C23CCN2C(O)C4(CC5CC67CC(=O)OC6CCN6CCC8(c9cccc(OC)c9N(C4)C58)C67)C4OCCC4(C1)C23` (stereo not drawn) was tested, and the MIC [5] was 4 µg/mL (≈ 5.46 µM).
In the case of `CN1c2ccccc2CCC1CCc1ccc2c(c1)OCO2` (stereo not drawn), the MIC [5] is reported as 6.25 µg/mL (≈ 21.2 µM).
In the case of `Cc1ccnc2c1C(=O)c1ccccc1C2=O` [CLEISTOPHOLINE], the MIC [1] is reported as 12.5 µg/mL (≈ 56 µM).
`COc1ccc2c3c(c4cc(OC)c(OC)cc4c2c1)CN1CCC[C@H]1C3` gave an MIC [8] of 12.5 µg/mL (≈ 34.4 µM).
`COc1ccc2c(c1OC)C(OC)N(C)c1c-2ccc2cc3c(cc12)OCO3` (stereo not drawn) showed an MIC [1] of 12.5 µg/mL (≈ 32.9 µM).
`CSC1=C(CCNC(C)=O)c2nc3ccccc3c3ccnc(c23)C1=O` [DIPLAMINE] gave an MIC [7] of 6.18 µg/mL (≈ 17 µM).
With `C[n+]1cc2c3c(ccc2c2ccc4cc5c(cc4c21)OCO5)OCO3` [SANGUINARIUM] the MIC (Mycolicibacterium aurum) was 24.5 µg/mL and the MIC [9] was 24.5 µg/mL.
`CC(=O)C[C@@H]1CC2C(C3c4[nH]c5ccccc5c4CCN31)C(O)C13CC/C=C\CCCCN1CC21CC/C=C\CCCCNC13` (stereo partly drawn) was tested, and the MIC [4] was 1.9 µg/mL (≈ 3.11 µM).
Compound `COc1ccc2c(c1)c(-c1c3c4c(cc5c(c4c4ccc(OC)cc14)OCO5)CCN3)c1c3c(cc4c(c32)OCO4)CCN1` [BIDEBILINE E] has an MIC [5] of 6.25 µg/mL (≈ 10.7 µM).
Compound `COc1ccc2cc1-c1cc(ccc1O)CC1NCCc3cc4c(cc31)Oc1c(c(OC)cc3c1C(C2)N(C)CC3)O4` (stereo not drawn) has an MIC [5] of 3.1 µg/mL (≈ 5.51 µM).
Compound `CC(=O)NCCc1c2c3c(ccnc3c3ncsc13)-c1ccccc1N2` [KUANONIAMINE D] has an MIC [7] of 12.2 µg/mL (≈ 34 µM).
`C[n+]1c2ccccc2cc2[n-]c3ccccc3c21` [CRYPTOLEPINE] showed an MIC [10] of 16 µg/mL (≈ 68.9 µM).
`Cn1c2c3ccccc3nc-2c(-c2c3nc4ccccc4c-3n(C)c3ccccc23)c2ccccc21` [BISCRYPTOLEPINE] gave an MIC [6] of 6.25 µg/mL (≈ 13.5 µM).
`COc1cc2c(cc1O)CCNC21C[S+]([O-])C2c3c(OC(C)=O)c(C)c4c(c3C(COC1=O)N1C(C#N)C3CC5CC(C)C(OC)C(O)C5C(C21)N3C)OCO4` (stereo not drawn) showed an MIC [7] of 1.6 µg/mL (≈ 2.02 µM).
`COc1ccc(CCc2cc(OC)c3ccccc3n2)cc1OC` showed an MIC [5] of 6.25 µg/mL (≈ 19.3 µM).
`On1ccc2c3ccccc3nc-2c1C1=CC2(O)CCC/C=C\CCCN3CCC1C1(CC4/C=C\CCCCN4C21)C3` (stereo not drawn) gave an MIC [7] of 3.9 µg/mL (≈ 6.91 µM).
For `O=C1c2c(O)ccnc2-c2nccc3c2c1nc1ccccc13`, the MIC [7] was > 12.6 µg/mL.
For `OC12C=C(c3nccc4c3[nH]c3ccccc34)C3CCN(CCCC/C=C\CC1)CC31CC34CCC(CCCN3C21)O4` (stereo not drawn), the MIC [7] was 1.77 µg/mL (≈ 3.13 µM).
In the case of `COc1cc2c(c3c1-c1ccc4cc5c(cc4c1N(C)C3OC)OCO5)OCO2` (stereo not drawn), the MIC [1] is reported as 25 µg/mL (≈ 63.5 µM).
`CC(=O)NCCc1c2c(c3nccc4c3c1Nc1ccccc1-4)NC(=O)CS2` [SHERMILAMINE B] gave an MIC [7] of 12.5 µg/mL (≈ 32 µM).
Work on `COc1cccc2c1C(=O)c1nccc3cc4c(c-2c13)OCO4` [OXOSTEPHANINE] yielded an MIC [11] of 25 µg/mL (≈ 81.9 µM).
`COc1ccc(CCC2CCc3ccccc3N2C)cc1OC` (stereo not drawn) was tested, and the MIC [5] was 6 µg/mL (≈ 19.3 µM).
`COc1cc(CCc2ccc3c(c2)OCO3)nc2ccccc12` [CUSPARINE] was tested, and the MIC [5] was 6.25 µg/mL (≈ 20.3 µM).
`CSc1cnc2c3c(nc4ccccc4c13)C(CCNC(C)=O)=CC2=O` [ISODIPLAMINE] showed an MIC [7] of 6.18 µg/mL (≈ 17 µM).
Work on `CCCC/C=C\CCCCCCCc1cc(=O)c2ccccc2n1C` yielded an MIC [12] of 5 µg/mL (≈ 14.7 µM).
`O=C1c2scnc2-c2nccc3c2c1nc1ccccc13` [KUANONIAMINE A] gave an MIC [7] of 3.1 µg/mL (≈ 10.7 µM).
For `Cn1c(=O)ccc2ccccc21`, the MIC [5] was 25 µg/mL (≈ 157 µM).
`COc1cc2c3c(OC)cc4c(c3c[n+](C)c2c2cc3c(cc12)OCO3)OCO4` showed an MIC [1] of 12.5 µg/mL.
`O=C1c2cccnc2-c2nccc3c2c1nc1ccccc13` [ASCIDIDEMIN] gave an MIC [7] of 0.01 µg/mL (≈ 0.0353 µM).
